SMILES strings stand for the structures.

A short description of this data set: HILIC, Waters ACQUITY UPLC BEH Amide, 100 × 2.1 mm, 1.7 µm; A: water + 0.125% formic acid + 10 mM ammonium formate; B: 5% water + 95% acetonitrile + 0.125% formic acid + 10 mM ammonium formate; gradient (min/%B) 0/100 2/100 7.7/70 9.5/40 10.25/30 12.75/100 17/100. The note with it: stereoisomer not certain.
For `CN1CCc2cc(Cl)c(O)cc2C(c2ccccc2)C1` (stereo not given) [UNII-UGT5535REQ], the LC retention time worked out at 2.89 min.
Turning to `O=c1cc[nH]c(=O)[nH]1` [Uracil], the LC retention time worked out at 2.4 min.
Regarding `COc1ccccc1N1CCN(CCCNc2cc(=O)n(C)c(=O)n2C)CC1` [Urapidil], the LC retention time came to 4.58 min.
With `NC(=O)NC(CCC(=O)O)C(=O)O` (stereo not given) [Ureidoglutaric acid] the figure was 7.8 min.
In the case of `O=c1ccn(C2OC(COP(=O)(O)O)C(O)C2O)c(=O)[nH]1` (stereo not given) [Uridine 5'-monophosphate], the LC retention time was 8.97 min.
For the compound `O=c1ccn(C2OC(CO)C(O)C2O)c(=O)[nH]1` (stereo not given) [Uridine], the LC retention time was 4.72 min.
Take `O=C(O)C=Cc1cnc[nH]1` [Urocanic acid]: the LC retention time is 3.69 min.
With `CC(C)C(N)C(=O)OCCOCn1cnc2c(=O)[nH]c(N)nc21` (stereo not given) [Valaciclovir] the figure was 6.83 min.
The figure for `Cc1onc(-c2ccccc2)c1-c1ccc(S(N)(=O)=O)cc1` [Valdecoxib] is 1.01 min; for `CC(C)C(N)C(=O)O` (stereo not given) [Valine] it is 7.24 min; for `CCCCC(=O)N(Cc1ccc(-c2ccccc2-c2nn[nH]n2)cc1)C(C(=O)O)C(C)C` (stereo not given) [Valsartan] it is 1.69 min.
With `COc1cc(C=O)ccc1O` [Vanillin], the LC retention time was found to be 1.15 min.
Take `CCCc1nc(C)c2c(=O)[nH]c(-c3cc(S(=O)(=O)N4CCN(CC)CC4)ccc3OCC)nn12` [Vardenafil]: the LC retention time was found to be 1.7 min.
With `COc1ccc(C(CN(C)C)C2(O)CCCCC2)cc1` (stereo not given) [Venlafaxine] the figure was 2.44 min; with `CC(=O)OC1CC2CCC3C(CCC4(C)C3CC([N+]3(C)CCCCC3)C4OC(C)=O)C2(C)CC1N1CCCCC1` (stereo not given) [Vercuronium], 5.53 min; with `OC1CCCCC1N1CCC(c2ccccc2)CC1` (stereo not given) [Vesamicol], 2.65 min.
The figure for `CCC1(O)CC2CN(CCc3c([nH]c4ccccc34)C(C(=O)OC)(c3cc4c(cc3OC)N(C=O)C3C(O)(C(=O)OC)C(OC(C)=O)C5(CC)C=CCN6CCC43C65)C2)C1` (stereo not given) [Vincristine] is 3.7 min; for `CCC1(O)CC2CN(CCc3c([nH]c4ccccc34)C(C(=O)OC)(c3cc4c(cc3OC)N(C)C3C(O)(C(N)=O)C(O)C5(CC)C=CCN6CCC43C65)C2)C1` (stereo not given) [Vindesine] it is 5.76 min; for `CCC1=CC2CN(C1)Cc1c([nH]c3ccccc13)C(C(=O)OC)(c1cc3c(cc1OC)N(C)C1C(O)(C(=O)OC)C(OC(C)=O)C4(CC)C=CCN5CCC31C54)C2` (stereo not given) [Vinorelbine] it is 4.76 min.
As for `C=COC(N)=O` [Vinyl Carbamate], the LC retention time was found to be 1.34 min.
`Cc1ccnc2c1NC(=O)c1cccnc1N2C1CC1` [Viramune]: the LC retention time is 1.16 min.
Turning to `O=c1cc(-c2ccc(O)cc2)oc2c(C3OC(CO)C(O)C(O)C3O)c(O)cc(O)c12` (stereo not given) [Vitexin], the LC retention time stood at 5.33 min.
With `CC(c1ncncc1F)C(O)(Cn1cncn1)c1ccc(F)cc1F` (stereo not given) [Voriconazole] the figure was 1.02 min; with `CC(=O)CC(c1ccccc1)c1c(O)c2ccccc2oc1=O` (stereo not given) [Warfarin], 0.99 min.
As for `NC(Cn1ccc(=O)[nH]c1=O)C(=O)O` (stereo not given) [Willardiine], the LC retention time was determined as 8.72 min.
`CN(CCO)CC(O)Cn1cnc2c1c(=O)n(C)c(=O)n2C` (stereo not given) [Xanthinol]: the LC retention time amounted to 6.01 min.
The figure for `O=c1[nH]c(=O)c2ncn(C3OC(CO)C(O)C3O)c2[nH]1` (stereo not given) [Xanthosine] is 7.3 min; for `COc1c2occc2cc2ccc(=O)oc12` [Xanthotoxin] it is 1.04 min.
The figure for `COc1cc(N)c(Cl)cc1C(=O)NC1CN2CCC1CC2` (stereo not given) [Zacopride] is 4.66 min.
For the compound `COc1cc(C(=O)NS(=O)(=O)c2ccccc2C)ccc1Cc1cn(C)c2ccc(NC(=O)OC3CCCC3)cc12` [Zafirlukast], the LC retention time turned out to be 1 min.

(Values after the RepoRT retention time repository.)
